The experiment has as its system NIH3T3 viability, CellTiter-Glo ATP luminescence. Briefly: cytotoxicity in NIH3T3 fibroblasts, dose response, cytotoxicity control for HSP40 inhibitor project, cell-based, CellTiter-Glo luminescence, cherry-pick, set 2 (AID 624265).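 Note: cells exposed to compound for 48 hours before the ATP read.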

22 compounds from PubChem BioAssay AID624265 (Broad Institute, 2012) can be followed below.

Each structure is given as a SMILES string.

Take `COc1cccc(/C=N/Nc2ncnc3scc(-c4ccccc4)c23)c1O`: the AC35 was 48.4 µM.

Consider `Oc1cccc2ccc(Nc3ccccn3)nc12`, for which the AC35 is 14.2 µM.

`CC(C)N1CCN(c2ccc(OC[C@H]3CO[C@](Cn4cncn4)(c4ccc(Cl)cc4Cl)O3)cc2)CC1`: the AC35 was 30.8 µM.

`COc1ccc(O)c(C(=O)CC(=O)c2ccc(F)cc2)c1`: the AC35 is 52.3 µM.

`O=CC1=C(c2ccccc2)Oc2ccccc2O1`: the AC35 was 47.5 µM.

For `C=C1C(=O)C23CCC4C(C)(C(=O)OC)CCCC4(C)C2CCC1(O)C3` (configuration not stated), the AC35 is 10.1 µM.

In the case of `Oc1c(C(Nc2cccc(C(F)(F)F)c2)c2ccncc2)ccc2cccnc12` (configuration not stated), the AC35 was 48.9 µM.

`Cc1c(Cc2ccccc2)c(NCCN(C)C)n2c(nc3ccccc32)c1C#N`: the AC35 is 16.3 µM.

Take `CCc1cc(SC#N)cc(C)c1NC(=O)CCl`: the AC35 was 49.6 µM.

On to `CC(C)N1CCN(c2ccc(OCC3COC(Cn4cncn4)(c4ccc(Cl)cc4Cl)O3)cc2)CC1` (configuration not stated), for which the AC35 is 12.4 µM.

`O=C(Nc1nc(-c2ccccn2)cs1)c1ccc(Br)s1`: the AC35 is 27.1 µM.

In the case of `O=C1c2cc(F)ccc2-n2c1nc1ccccc1c2=O`, the AC35 was 50 µM.

`Oc1ccc(/C=N/Nc2ccc(C(F)(F)F)cn2)c(O)c1`: the AC35 is 43.9 µM.

As to `CCCCCCCCCCOC(=O)Cn1c(COc2ccccc2OC)[n+](C)c2ccccc21`, the AC35 is 26.7 µM.

For `Oc1ccc(N=Nc2ccc3c(c2)OCCO3)c2cccnc12`, the AC35 is 50.2 µM.

Consider `CC1CCN(c2nc(-c3ccncc3)nc3ccccc23)CC1`, for which the AC35 was 49.6 µM.

Take `Cc1[nH]n(-c2ccccc2)c(=O)c1/C=N/Nc1nncc(-c2ccccc2)n1`: the AC35 is 19.5 µM.

Take `O=[N+]([O-])c1ccc(Sc2cccc[n+]2[O-])c2nonc12`: the AC35 is 4.46 µM.

Regarding `CC[n+]1c(/C=C/C=C/c2ccc(N(C)C)cc2)sc2ccccc21`, the AC35 is 24.4 µM.

On to `Cc1ccc(Cl)cc1NC1=C/C(=N\S(=O)(=O)c2cccs2)c2ccccc2C1=O`, for which the AC35 was 8.07 µM.

As to `CC(=O)Oc1ccc(OC(C)=O)c(SCCCCCCl)c1`, the AC35 is 42.6 µM.

With `CCC(=O)NC(c1ccco1)c1cc(Cl)c2cccnc2c1O` (configuration not stated), the AC35 was 49.1 µM.
